Key:
[1] = target: T1, bovine serum albumin (BSA) (Bos taurus, UniProt P02769); test: Fluorescence quenching of BSA by MOL (Stern–Volmer and modified Stern–Volmer analysis, thermodynamics); assay type: binding; conditions: for Ksv (Stern–Volmer quenching constant) / n (number of binding sites) / Kd: pH 7.4; for Kd: read-out: Log Ka (converted)
T1 construct: purchased BIOMARK laboratories (Pune, Maharashtra, India)
Method: The fluorescence of the tyrosine (Tyr) and tryptophan (Trp) residues observed for solutions that have a fixed BSA concentration 3 µM and different concentrations of MOL (30–180 µM) at pH 7.4. The emission spectra were obtained between 300 and 500 nm. The excitation wavelength was 295 nm, at temperatures 285, 290, 295, 303, and 308 K. […]
Utilizing the Stern–Volmer equation, the quenching mechanism was identified (Eq. 1):1 [drawing 1]
The fluorescence intensities of BSA in absence of MOL are indicated as [drawing 2] while those measured in the presence of MOL are referred to as [drawing 3] . The term [drawing 4] represents the Stern–Volmer quenching rate constant. MOL concentration represents the quencher concentration [drawing 5] .
F^0/F was plotted versus [Q], then the slope was calculated to obtain the values of Ksv as shown in the Stern–Volmer equation (Eq. 1) to assess the experimental results as shown in Fig. 3.
IFE-corrected fluorescence intensity values were calculated using the following formula: […]
The modified Stern–Volmer equation is used to determine the stoichiometry (n) and equilibrium association constant (Ka), which govern how small molecules interact with specific binding sites on a macromolecule (Eq. 2).2 [drawing 7]
where [drawing 8] represents the number of binding sites and [drawing 9] represents the binding constant, as calculated from the plots of log [(F0–F)/F] against log [Q]. The plot of the modified Stern–Volmer equation was illustrated in Fig. S2. […] The stoichiometry of the binding interaction concerning MOL and BSA was approximately 1:1, as indicated by the n value being close to unity.
The intercept and slope of the plot of ln Ka vs. 1/T were used to determine ΔS (entropy change) and ΔH (enthalpy change), respectively in accordance with the Vant’s Hoff equation (Eq. 3), as shown in Table 2.
Furthermore, the Gibbs–Helmholtz equation determines ΔG (Eq. 4).3 [drawing 10] 4 [drawing 11]
where ΔG denotes the Gibbs free energy change and R denotes the universal gas constant (8.314 J mol^−1 k^−1) while T is the absolute temperature (K). […] The negative values of both ΔH and ΔS indicate that the binding of MOL to BSA is primarily governed by hydrogen bonding and van der Waals interactions rather than hydrophobic forces. The thermodynamic results, was supported by docking analysis, confirming that hydrogen bonding and van der Waals contacts are the dominant driving forces in MOL–BSA complex formation. […] Moreover, the spontaneity of the interaction could reflect the favorable conformational stability of the MOL-BSA complex.

[2] = target: T1, bovine serum albumin (BSA); test: Site marker competition (indomethacin site I, diazepam site II) for MOL binding to BSA; conditions: 295 K, pH 7.4; for Kd: read-out: Log Ka (converted)
Method: This study was conducted using two specific site probes: indomethacin for site I and diazepam for site II. In these experiments, the concentrations of BSA and the site probes were kept constant at 3 µM and 10 µM, respectively, while the concentration of MOL was varied from 30 to 180 µM. Fluorescence intensity was measured at 350 nm with excitation at 295 nm, and all measurements were carried out at 295 K and pH 7.4. The binding equilibrium constants (Ka) of MOL to BSA alone, indomethacin-BSA, and diazepam-BSA complexes were compared.
The apparent binding constants (Ka) were calculated by plotting log[(F₀–F)/F] versus log[Q] in the absence and presence of site markers Figure S6.

[3] = target: T1, bovine serum albumin (BSA); test: Effect of common ions on binding affinity of MOL to BSA; conditions: 297 K, pH 7.4
Description: […] […] These findings can be used for further investigations into how different ions influence the binding affinity of MOL to BSA.
Ka′/Ka is the binding constant divided by the binding constant in the absence of the ion; r is the correlation coefficient.

BSA = target: T2, BSA (Bos taurus, UniProt P02769); test: Synchronous fluorescence spectroscopy of BSA with MOL; assay type: binding, bovine; conditions: MOL 0–180 µM, pH 7.4
T2 construct: purchased BIOMARK laboratories (Pune, Maharashtra, India)
T2 sequence (P02769 25-607): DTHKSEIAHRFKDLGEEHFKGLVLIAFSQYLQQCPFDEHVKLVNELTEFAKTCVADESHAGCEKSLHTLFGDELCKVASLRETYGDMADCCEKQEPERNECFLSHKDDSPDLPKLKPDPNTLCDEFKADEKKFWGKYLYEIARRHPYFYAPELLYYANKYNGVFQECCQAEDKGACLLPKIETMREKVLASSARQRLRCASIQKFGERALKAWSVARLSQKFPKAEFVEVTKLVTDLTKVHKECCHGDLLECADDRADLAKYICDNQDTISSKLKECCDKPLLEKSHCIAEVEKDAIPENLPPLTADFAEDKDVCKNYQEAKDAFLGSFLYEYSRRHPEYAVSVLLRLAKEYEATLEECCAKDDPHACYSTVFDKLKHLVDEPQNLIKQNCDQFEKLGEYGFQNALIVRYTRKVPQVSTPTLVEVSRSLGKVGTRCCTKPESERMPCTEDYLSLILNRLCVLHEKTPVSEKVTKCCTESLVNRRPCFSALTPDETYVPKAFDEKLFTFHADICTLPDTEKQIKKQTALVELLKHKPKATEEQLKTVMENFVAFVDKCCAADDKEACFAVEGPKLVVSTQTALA
Method: Initially, the synchronous fluorescence spectra of BSA were acquired at a concentration of 3µM, and then its mixtures with MOL ranged from 30 to 180 µM at pH 7.4. These spectra were obtained at spectral intervals of Δλ = 15 nm as well as Δλ = 60 nm, with a 10 mm path quartz cell and scanning rate of 1000 nanometers per minute (nm/min).
The polarity of the surrounding environment of the fluorescent amino acids in BSA is influenced by ligand interaction, and this has been studied using synchronous fluorescence spectroscopy. In this study, a scanning interval (Δλ) of 60 nm and 15 nm was set between the excitation and emission wavelengths, allowing for the observation of polarity alterations surrounding tyrosine (Tyr) and tryptophan (Trp) residues, respectively.
Spectra of BSA synchronous fluorescence were acquired for BSA solutions both with and without the addition of MOL (Fig. 4). […] The Ratios of Synchronous Fluorescence Quenching (RSFQ) were determined using Eq. 5 as follows: […]

bovine serum albumin = target: T3, bovine serum albumin (Bos taurus, UniProt P02769); test: FT-IR spectroscopy of BSA with MOL; assay type: binding; conditions: BSA 3 µM, MOL 180 µM, pH 7.4
T3 construct: purchased BIOMARK laboratories (Pune, Maharashtra, India)
T3 sequence (P02769 25-607): as above
Method: FT-IR spectra of 3 µM bovine serum albumin solution in tris-HCl buffer, BSA (3 µM) in the presence of MOL (180 µM), and MOL alone (180 µM) at pH 7.4 were recorded using Tensor27—S2887 FT-IR spectrometer (Bruker, Germany) from 4000 to 1000 cm^− 1. Baseline correction and water vapor subtraction were applied prior to analysis.
FT-IR spectroscopy was utilized to examine the secondary structure of BSA in free, drug-bound forms and free drug by recording changes in spectra as shown in Fig. S5. However, slight differences were observed between these spectra. […] The results from the UV absorption and fluorescence analysis are consistent with this observation.

[4] = parameters: method as in PMID 39912659, PMID 37526305; conditions: following oral administration; hydrolyzed by esterases to NHC; cited from earlier work
[5] = van't Hoff plot of ln Ka vs 1/T, 285–308 K

T1 sequence (P02769 25-607): as above

ΔG (Gibbs free energy change) ([1]; 285 K): -23.915 KJ mol ^− 1
Ksv (Stern–Volmer quenching constant) ([1]; 285 K): 11100 L/mol
n (number of binding sites) ([1]; 285 K): 1.072
Kd ([1]; 285 K): 41.4 µM
ΔG (Gibbs free energy change) ([1]; 290 K): -23.546 KJ mol ^− 1
Ksv (Stern–Volmer quenching constant) ([1]; 290 K): 9635 L/mol
n (number of binding sites) ([1]; 290 K): 1.077
Kd ([1]; 290 K): 57.4 µM
difference between IFE-corrected and uncorrected Ksv ([1]; 295 K): 0.9%
ΔG (Gibbs free energy change) ([1]; 295 K): -23.252 KJ mol ^− 1
corrected Stern–Volmer constant (Ksv) ([1]; 295 K, inner filter effect (IFE) corrected): 7160 L/mol
Ksv (Stern–Volmer quenching constant) ([1]; 295 K): 7096 L/mol
n (number of binding sites) ([1]; 295 K): 1.086
Kd ([1]; 295 K): 76.3 µM
uncorrected Stern–Volmer constant (Ksv) ([1]; 295 K, uncorrected): 7096 L/mol
ΔG (Gibbs free energy change) ([1]; 303 K): -22.276 KJ mol ^− 1
Ksv (Stern–Volmer quenching constant) ([1]; 303 K): 5288 L/mol
n (number of binding sites) ([1]; 303 K): 1.066
Kd ([1]; 303 K): 144 µM
ΔG (Gibbs free energy change) ([1]; 308 K): -21.618 KJ mol ^− 1
Ksv (Stern–Volmer quenching constant) ([1]; 308 K): 3800 L/mol
n (number of binding sites) ([1]; 308 K): 1.055
Kd ([1]; 308 K): 216 µM
fluorescence quenching mechanism ([1]; Ksv inversely proportional to temperature): static interaction
ΔH (enthalpy change) [1, 5]: -52.434 KJ.mol ^− 1
ΔS (entropy change) [1, 5]: -99.63 J mol^− 1K^− 1
Kd ([2]; in presence of diazepam (site II probe, 10 µM)): 361 µM
Kd ([2]; in presence of indomethacin (site I probe, 10 µM)): 56.3 µM
preferential binding site on BSA ([2]; site marker displacement): Sudlow’s site II
Ka’/ Ka (binding constant divided by binding constant in absence of the ion) ([3]; Ca^2+ added (75 µM)): 0.9046
Kd ([3]; Ca^2+ added (75 µM), read-out: Ka’ (binding constant) (converted)): 674 µM
Ka’/ Ka (binding constant divided by binding constant in absence of the ion) ([3]; Co^2+ added (75 µM)): 1.6233
Kd ([3]; Co^2+ added (75 µM), read-out: Log Ka (converted)): 375 µM
Ka’/ Ka (binding constant divided by binding constant in absence of the ion) ([3]; Cu^2+ added (75 µM)): 0.2573
Kd ([3]; Cu^2+ added (75 µM), read-out: Log Ka (converted)): 2370 µM
Ka’/ Ka (binding constant divided by binding constant in absence of the ion) ([3]; No ion): 1
Kd ([3]; No ion, read-out: Ka’ (binding constant) (converted)): 609 µM
red shift in λmax of BSA synchronous fluorescence (BSA; Δλ = 15 nm (Tyr residues)): about 2 nm
shift in λmax of BSA synchronous fluorescence (BSA; Δλ = 60 nm): no shift was detected
amide band of BSA after addition of MOL (bovine serum albumin): shifted from 1610 cm^−1 to 1636 cm^−1
SMILES: CC(C)C(=O)OC[C@H]1O[C@@H](n2ccc(NO)nc2=O)[C@H](O)[C@@H]1O [MOL, Molnupiravir]
systemic plasma concentration of parent drug [4]: no significant concentrations of the parent drug are detected systemically in plasma

Source: publication PMC12560410, “Multi spectroscopic investigations with molecular docking and molecular dynamics simulation of the binding mechanism of molnupiravir to bovine serum albumin” (BMC Chemistry, 2025)
